From patent US8829034B2, “Compounds which modulate the CB2 receptor” (Boehringer Ingerlheim International GmbH, priority 2006, dated 2014) come the findings set out here.

Where two headings read alike, the source gives them in different places.

Broadly, the EC50 is the concentration that produces a half-maximal response.

The target of the assay is T1, human CB2R (Homo sapiens, UniProt P34972).
T1 construct: host or cells: CHO cells
In words: CB2R mediated modulation of cAMP synthesis. The class given is cell-based. The following applies: for agonistic activity: found through the use of the above described assays. In short, it runs like this: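 CHO cells expressing human CB2R were treated with compound for 30 min at 37 °C in buffer containing 1 mM IBMX, 0.25% BSA and 10 uM forskolin. cAMP was measured after lysis. EC50 was taken as 50% inhibition of forskolin-stimulated cAMP, with 100% defined by 1 uM CP55940, using a four-parameter logistic fit.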

T1 sequence (P34972 whole entry): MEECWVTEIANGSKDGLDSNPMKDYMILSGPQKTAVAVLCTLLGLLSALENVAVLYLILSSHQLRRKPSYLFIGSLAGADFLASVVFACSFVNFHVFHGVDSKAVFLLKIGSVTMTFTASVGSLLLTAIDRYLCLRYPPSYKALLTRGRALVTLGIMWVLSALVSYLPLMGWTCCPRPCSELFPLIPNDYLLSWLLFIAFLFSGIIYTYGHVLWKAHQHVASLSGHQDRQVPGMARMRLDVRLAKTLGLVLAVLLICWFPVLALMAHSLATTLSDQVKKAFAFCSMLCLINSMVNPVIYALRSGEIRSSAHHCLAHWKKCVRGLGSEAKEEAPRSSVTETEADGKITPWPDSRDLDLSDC

Consider `CC(C)(C)c1cc(NC(=O)C(C)(C)S(=O)(=O)C2CCCCC2)on1` [N-(3-tert-Butyl-isoxazol-5-yl)-2-cyclohexanesulfonyl-2-methyl-propionamide], for which the agonistic activity entry was “agonistic activity”.

For the compound `CC(C)(C)c1cc(NC(=O)C(C)(C)S(=O)(=O)CC2CCCCC2)on1` [N-(3-tert-Butyl-isoxazol-5-yl)-2-cyclohexylmethanesulfonyl-2-methyl-propionamide], the EC50 was 0.1 nM and the agonistic activity result is recorded as “agonistic activity”.

As to `CC(C)(C)c1cc(NC(=O)C(C)(C)S(=O)(=O)C2CCCC2)on1` [N-(3-tert-Butyl-isoxazol-5-yl)-2-cyclopentanesulfonyl-2-methyl-propionamide], the concentration for a half-maximal effect (EC50) came to 0.9 nM and the agonistic activity result is listed as “agonistic activity”.

Consider `CC(C)(C)c1cc(NC(=O)C(C)(C)S(=O)(=O)CC2CC2)on1` [N-(3-tert-Butyl-isoxazol-5-yl)-2-cyclopropylmethanesulfonyl-2-methyl-propionamide], for which a half-maximal response (EC50) required 12.5 nM and the agonistic activity entry is “agonistic activity”.

In the case of `CC(C)CS(=O)(=O)C(C)(C)C(=O)Nc1cc(C(C)(C)C)no1` [N-(3-tert-Butyl-isoxazol-5-yl)-2-methyl-2-(2-methyl-propane-1-sulfonyl)-propionamide], the EC50 was 1.6 nM and the agonistic activity entry is on record as “agonistic activity”.

Take `CC(C)CCS(=O)(=O)C(C)(C)C(=O)Nc1cc(C(C)(C)C)no1` [N-(3-tert-Butyl-isoxazol-5-yl)-2-methyl-2-(3-methyl-butane-1-sulfonyl)-propionamide]: the agonistic activity entry is recorded as “agonistic activity”. For the setting “CHO cells expressing human CB2R, inhibition of forskolin-stimulated cAMP synthesis, compounds having agonist activity, read-out: CB2 EC50”, the EC50 amounted to 0.04 nM.

Consider `CCCS(=O)(=O)C(C)(C)C(=O)Nc1cc(C(C)(C)C)no1` [N-(3-tert-Butyl-isoxazol-5-yl)-2-methyl-2-(propane-1-sulfonyl)-propionamide], for which the EC50 was determined as 89.7 nM and the agonistic activity result is on record as “agonistic activity”.

As for `CC(C)S(=O)(=O)C(C)(C)C(=O)Nc1cc(C(C)(C)C)no1` [N-(3-tert-Butyl-isoxazol-5-yl)-2-methyl-2-(propane-2-sulfonyl)-propionamide], the agonistic activity entry is reported as “agonistic activity”.

On to `CC(C)(C)c1cc(NC(=O)C(C)(C)S(=O)(=O)CC2CCCO2)on1` (stereo not shown) [N-(3-tert-Butyl-isoxazol-5-yl)-2-methyl-2-(tetrahydro-furan-2-ylmethanesulfonyl)-propionamide], for which the midpoint of the response, the EC50, lay at 31.5 nM and the agonistic activity entry is “agonistic activity”.

On to `CC(C)(C)c1cc(NC(=O)C(C)(C)S(=O)(=O)CC2CCOC2)on1` (stereo not shown) [N-(3-tert-Butyl-isoxazol-5-yl)-2-methyl-2-(tetrahydro-furan-3-ylmethanesulfonyl)-propionamide], for which the response was half-maximal at 18.5 nM (EC50) and the agonistic activity entry was “agonistic activity”.

In the case of `CC(C)(C)c1cc(NC(=O)C(C)(C)S(=O)(=O)CC2CCCCO2)on1` (stereo not shown) [N-(3-tert-Butyl-isoxazol-5-yl)-2-methyl-2-(tetrahydro-pyran-2-ylmethanesulfonyl)-propionamide], the EC50 amounted to 0.2 nM and the agonistic activity entry is given as “agonistic activity”.

For the compound `CC(C)(C)c1cc(NC(=O)C(C)(C)S(=O)(=O)C2CCOCC2)on1` [N-(3-tert-Butyl-isoxazol-5-yl)-2-methyl-2-(tetrahydro-pyran-4-sulfonyl)-propionamide], the EC50 stood at 0.1 nM and the agonistic activity result is on record as “agonistic activity”.

Regarding `CC(C)(C)c1cc(NC(=O)C(C)(C)S(=O)(=O)CC2CCOCC2)on1` [N-(3-tert-Butyl-isoxazol-5-yl)-2-methyl-2-(tetrahydro-pyran-4-ylmethanesulfonyl)-propionamide], the EC50 was found to be 4 nM and the agonistic activity entry was “agonistic activity”.

For `CCCS(=O)(=O)C(C)(C)C(=O)Nc1cccc(C(C)(C)C)c1` [N-(3-tert-Butyl-phenyl)-2-methyl-2-(propane-1-sulfonyl)-propionamide], the agonistic activity result is “agonistic activity”.

As to `CC(C)S(=O)(=O)C(C)(C)C(=O)Nc1cccc(C(C)(C)C)c1` [N-(3-tert-Butyl-phenyl)-2-methyl-2-(propane-2-sulfonyl)-propionamide], the agonistic activity result is recorded as “agonistic activity”.

On to `CC(C)(C)c1cccc(NC(=O)C(C)(C)S(=O)(=O)CC2CCOCC2)c1` [N-(3-tert-Butyl-phenyl)-2-methyl-2-(tetrahydro-pyran-4-ylmethanesulfonyl)-propionamide], for which it took 14.3 nM to reach a half-maximal effect (EC50) and the agonistic activity entry is “agonistic activity”.

With `CCCS(=O)(=O)C(C)(C)C(=O)Nc1nc(C2CCCCC2)cs1` [N-(4-Cyclohexyl-thiazol-2-yl)-2-methyl-2-(propane-1-sulfonyl)-propionamide], the EC50 is 31.1 nM and the agonistic activity entry was “agonistic activity”.

As for `CC(C)(C(=O)Nc1nc(C2CCCCC2)cs1)S(=O)(=O)CC1CCOCC1` [N-(4-Cyclohexyl-thiazol-2-yl)-2-methyl-2-(tetrahydro-pyran-4-ylmethanesulfonyl)-propionamide], the concentration for a half-maximal effect (EC50) was 8.3 nM and the agonistic activity result is reported as “agonistic activity”.

`CC(C)(C(=O)Nc1nc(C2CC2)cs1)S(=O)(=O)CC1CCOCC1` [N-(4-Cyclopropyl-thiazol-2-yl)-2-methyl-2-(tetrahydro-pyran-4-ylmethanesulfonyl)-propionamide]: the agonistic activity result is on record as “agonistic activity”.

For `CCc1ccnc(NC(=O)C(C)(C)S(=O)(=O)CC2CCOCC2)c1` [N-(4-Ethyl-pyridin-2-yl)-2-methyl-2-(tetrahydro-pyran-4-ylmethanesulfonyl)-propionamide], the agonistic activity entry is “agonistic activity”.

Take `CCCS(=O)(=O)C(C)(C)C(=O)Nc1ccc(C(C)(C)C)cc1` [N-(4-tert-Butyl-phenyl)-2-methyl-2-(propane-1-sulfonyl)-propionamide]: a half-maximal response (EC50) required 12.3 nM and the agonistic activity result is listed as “agonistic activity”.

Regarding `CC(C)S(=O)(=O)C(C)(C)C(=O)Nc1ccc(C(C)(C)C)cc1` [N-(4-tert-Butyl-phenyl)-2-methyl-2-(propane-2-sulfonyl)-propionamide], the agonistic activity entry was “agonistic activity”.

Turning to `CC(C)(C)c1ccc(NC(=O)C(C)(C)S(=O)(=O)CC2CCOCC2)cc1` [N-(4-tert-Butyl-phenyl)-2-methyl-2-(tetrahydro-pyran-4-ylmethanesulfonyl)-propionamide], the EC50 was 3.3 nM and the agonistic activity result is listed as “agonistic activity”.

On to `CC(C)(C)c1csc(NC(=O)C(C)(C)S(=O)(=O)Cc2ccc(Cl)cc2)n1` [N-(4-tert-Butyl-thiazol-2-yl)-2-(4-chloro-phenylmethanesulfonyl)-2-methyl-propionamide], for which the agonistic activity result was “agonistic activity”.

For the compound `CC(C)S(=O)(=O)C(C)C(=O)Nc1nc(C(C)(C)C)cs1` (stereo not shown) [N-(4-tert-Butyl-thiazol-2-yl)-2-(propane-2-sulfonyl)-propionamide], the agonistic activity result is “agonistic activity”.

As for `CC(C)(C)c1csc(NC(=O)C(C)(C)S(=O)(=O)C2CCCC2)n1` [N-(4-tert-Butyl-thiazol-2-yl)-2-cyclopentanesulfonyl-2-methyl-propionamide], the EC50 was 19 nM and the agonistic activity result is listed as “agonistic activity”.
